The values below come from patent publication US20260166128A1, “HUMAN AMYLIN ANALOG, AND DERIVATIVE THEREOF AND USE THEREOF” (priority 2022, published 2026).

One data set has as its target T1, human amylin receptor (Homo sapiens, UniProt O60896+P30988).
T1 construct: host or cells: CHO-K1/Ga15/AMY3 cells, further stably transfected with a CRE-luciferase plasmid
T1 sequence (P30988 25-474): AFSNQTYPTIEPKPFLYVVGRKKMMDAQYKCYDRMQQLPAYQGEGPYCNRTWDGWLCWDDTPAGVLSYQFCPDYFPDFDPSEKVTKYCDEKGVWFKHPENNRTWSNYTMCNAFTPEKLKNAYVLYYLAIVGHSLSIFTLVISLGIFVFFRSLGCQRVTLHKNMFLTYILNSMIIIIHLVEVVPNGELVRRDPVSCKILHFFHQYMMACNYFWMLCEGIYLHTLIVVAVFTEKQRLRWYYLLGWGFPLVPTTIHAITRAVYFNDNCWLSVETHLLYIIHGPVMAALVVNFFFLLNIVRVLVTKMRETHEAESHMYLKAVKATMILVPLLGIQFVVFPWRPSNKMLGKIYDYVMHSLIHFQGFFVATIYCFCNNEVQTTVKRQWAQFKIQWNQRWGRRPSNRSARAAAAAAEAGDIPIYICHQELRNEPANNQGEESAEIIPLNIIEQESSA
T1 sequence (O60896 24-148 partner): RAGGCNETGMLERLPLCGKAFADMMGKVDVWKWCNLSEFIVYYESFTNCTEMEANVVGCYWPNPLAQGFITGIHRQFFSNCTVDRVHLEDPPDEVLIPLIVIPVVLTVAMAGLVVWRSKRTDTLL
Put plainly: Luciferase assay of amylin derivatives in amylin receptor/CRE-luc CHO cell line. The data set is classed as cell-based. The settings on record: CHO-K1/Ga15/AMY3 CRE-luc cells, 24 hours incubation, F12 medium containing 10% FBS; read-out: EC50.

A short description of data set [1]: Freeze-thaw stability of derivatives (freeze-thaw yield by liquid chromatography). The data set is classed as physicochemical. To be noted: for Dissolution property: appearance after dissolution at 0.2 mg/ml in 20 mM phosphate buffer solution (PB) (pH 7.0); for Freeze storage property: appearance after overnight storage at −20° C. and thawing to room temperature, 0.2 mg/ml in 20 mM PB (pH 7.0). The method in brief: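 Freeze-thaw yield is the ratio of peptide concentration after versus before one overnight −20° C freeze and room-temperature thaw, both quantified by RP-HPLC of supernatant after centrifugation. Samples were 0.2 mg/ml freeze-dried derivative in 20 mM PB, pH 7.0.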

Numbered stars: 1 amine (or outer) side, 2 acyl side, 3 side chain; on linkers, the order of the positions; unused ones are H or OH. Bridge positions count the residues as written; N and C are the ends. Square brackets hold non-standard residues; d marks the D form. Side chains are listed from the residue outwards. Peptide text beside a SMILES is read from it. * marks the point of attachment. C20 diacid = O=C(O)CCCCCCCCCCCCCCCCCCC(=O)*; γGlu = O=C(O)[C@H](CCC(=O)[*:2])N[*:1]; Hyp = O=C(O)[C@@H]1C[C@@H](O)CN1; AEEA = NCCOCCOCC(=O)O

Description for human amylin receptor: The experiment was intended to detect the activity or efficacy of the amylin derivatives on a human amylin receptor in vitro by luciferase assay.
50 μL of growth medium (F12 medium containing 10% FBS) was added into each well of a white 96-well plate, and the stably transfected amylin/CRE-lue CHO cells were inoculated into the white 96-well plate at a density of about 20,000 cells/well for activity determination.

On to `CC[C@H](C)[C@H](NC(=O)[C@@H]1CCCN1C(=O)CNC(=O)[C@H](CC(C)C)NC(=O)[C@H](CC(N)=O)NC(=O)[C@H](CCCCNC(=O)COCCOCCNC(=O)COCCOCCNC(=O)CC[C@H](NC(=O)CCCCCCCCCCCCCCCCCCC(=O)O)C(=O)O)NC(=O)[C@H](CO)NC(=O)[C@H](CO)NC(=O)[C@H](Cc1c[nH]cn1)NC(=O)[C@H](CCCNC(=N)N)NC(=O)[C@H](CC(C)C)NC(=O)[C@H](Cc1ccccc1)NC(=O)[C@H](CCC(=O)O)NC(=O)[C@H](C)NC(=O)[C@H](CC(C)C)NC(=O)[C@H](CCCNC(=N)N)NC(=O)[C@H](CCC(N)=O)NC(=O)[C@@H](NC(=O)[C@H](C)NC(=O)[C@@H]1CSSC[C@H](NC(=O)[C@@H](N)CCCNC(=N)N)C(=O)N[C@@H](CC(N)=O)C(=O)N[C@@H]([C@@H](C)O)C(=O)N[C@@H](C)C(=O)N[C@@H]([C@@H](C)O)C(=O)N1)[C@@H](C)O)C(=O)N[C@@H](CC(C)C)C(=O)N1CCC[C@H]1C(=O)N1CCC[C@H]1C(=O)N[C@H](C(=O)N[C@@H](CC(N)=O)C(=O)N[C@H](C(=O)NCC(=O)N[C@@H](CO)C(=O)N[C@@H](CC(N)=O)C(=O)N[C@H](C(=O)N1CCC[C@H]1C(N)=O)[C@@H](C)O)C(C)C)[C@@H](C)O` [PD001] (H-RCNTATCATQRLAEFLRHSSK([AEEA-AEEA-γGlu-C20 diacid])NLGPILPPTNVGSNTP-NH2; disulfide 2-7 (inferred); N-terminus assumed), for which the EC50 on human amylin receptor is 0.042 nM. In data set [1], the Dissolution property entry is listed as “Clear” and the Freeze storage property entry was “Clear”.

As for `CC[C@H](C)[C@H](NC(=O)[C@@H]1CCCN1C(=O)CNC(=O)[C@H](CC(C)C)NC(=O)[C@H](CC(N)=O)NC(=O)[C@H](CC(N)=O)NC(=O)[C@H](CO)NC(=O)[C@H](CO)NC(=O)[C@H](Cc1c[nH]cn1)NC(=O)[C@H](CCCNC(=N)N)NC(=O)[C@H](CC(C)C)NC(=O)[C@H](Cc1ccccc1)NC(=O)[C@H](CC(=O)O)NC(=O)[C@H](C)NC(=O)[C@H](CC(C)C)NC(=O)[C@H](CCCNC(=N)N)NC(=O)[C@H](CCC(N)=O)NC(=O)[C@@H](NC(=O)[C@H](C)NC(=O)[C@@H]1CSSC[C@H](NC(=O)[C@H](CCCCN)NC(=O)COCCOCCNC(=O)COCCOCCNC(=O)CC[C@H](NC(=O)CCCCCCCCCCCCCCCCCCC(=O)O)C(=O)O)C(=O)N[C@@H](CC(N)=O)C(=O)N[C@@H]([C@@H](C)O)C(=O)N[C@@H](C)C(=O)N[C@@H]([C@@H](C)O)C(=O)N1)[C@@H](C)O)C(=O)N[C@@H](CC(C)C)C(=O)N1CCC[C@H]1C(=O)N1CCC[C@H]1C(=O)N[C@H](C(=O)N[C@@H](CC(N)=O)C(=O)N[C@H](C(=O)NCC(=O)N[C@@H](CO)C(=O)N[C@@H](CC(N)=O)C(=O)N[C@H](C(=O)N1C[C@H](O)C[C@H]1C(N)=O)[C@@H](C)O)C(C)C)[C@@H](C)O` [PD123] ({C20 diacid-γGlu-AEEA-AEEA}-KCNTATCATQRLADFLRHSSNNLGPILPPTNVGSNT[Hyp]-NH2; disulfide 2-7 (inferred)), the concentration giving a half-maximal response (EC50) on human amylin receptor amounted to 0.068 nM. Moreover, in data set [1], the Dissolution property entry is “Clear” and the Freeze storage property result is recorded as “Clear”. In data set [1] (concentration of polypeptide after freezing and thawing / concentration before, by liquid chromatography, −20° C. overnight), this molecule gave a Freeze storage yield of 102.11%.
